Data as given in patent US4151282A, “Compositions and methods for treating diabetic complications” (A. H. Robins Company, Inc., priority 1977, dated 1979).
pIC50: −log10 of the molar value.

Assays:
aldose reductase = assay: Lens polyol (dulcitol) accumulation in galactose-fed rats; type: in vivo, rat (male albino, Spraque-Dawley); conditions: for Mean Polyol Accumulation, Micromoles Dulcitol/g of Tissue: rat lens 24 h after third dose
Protocol: As discussed hereinabove, sugar cataract formation is a frequent complication of the diabetic patient and their occurrence is apparent even in patients where diabetes appears controlled. […] The accumulation of polyols in the lens tissue results in osmotic and histological changes which are characteristic of sugar cataracts. […] Control rats received a 10% galactose solution at a dose level of 10 ml/kg. daily for three days. The total dose was 1 g/kg daily. Six animals per control group were used. Groups receiving galactose plus test drug contained three rats. The routine starting dose of a test drug was 100 mg/kg. orally for three days with galactose given simultaneously. The test drug was administered at a volume of 5 ml/kg. The test drug solution and the galactose solution were administered together. Twenty-four hours after the third dose the lens of the eyeballs were carefully removed from the sacrificed rats and the polyol content of the lens determined according to West and Rapport, Proc. Soc. Exp. Biol. Med. 70, 141-142 (1949).

[1] = biological target: T1, Aldose reductase isolated from bovine lens (Bos taurus, UniProt P16116); assay: Inhibition of aldose reductase isolated from bovine lens (Lineweaver-Burk); type: biochemical; conditions: procedure of Lineweaver and Burk, read-out: Amount which inhibits the maximum velocity of the aldose reductase activity by 50% (IC50)
T1 construct: Aldose reductase was isolated from bovine lens; from tissue; host or cells: bovine lens
Protocol: The ability of 4,5-dihydro-4H-pyrrolo[3,2,1-ij]quinoline-1,2-dione to inhibit aldose reductase activity was determined according to the procedure of Lineweaver, H., and Burk D., The Determination of Enzyme Dissociation Constants, J. Am. Chem. Soc. 658-666 (1934).
Aldose reductase was isolated from bovine lens and the activity of the enzyme determined according to Gabbay, R. H. and Kinoshita, J. H., Methods in Enzymology, Vol. XLI (B) 37:159.

pIC50 [1] | SMILES | Mean Polyol Accumulation, Micromoles Dulcitol/g of Tissue (aldose reductase; Experiment No. 1, 100 mg/kg PO daily for three days with galactose 1 g/kg daily, galactose controls 3.7) | Mean Polyol Accumulation, %± Control (aldose reductase; Experiment No. 1, 100 mg/kg PO daily for three days with galactose, rat lens, vs galactose controls) [%] | Mean Polyol Accumulation, %± Control (aldose reductase; po, 100 mg/kg, 72 h) [%] | Mean Polyol Accumulation, Micromoles Dulcitol/g of Tissue (aldose reductase; Experiment No. 1, 200 mg/kg PO daily for three days with galactose 1 g/kg daily, galactose controls 3.7) | Mean Polyol Accumulation, %± Control (aldose reductase; Experiment No. 1, 200 mg/kg PO daily for three days with galactose, rat lens, vs galactose controls) [%] | Mean Polyol Accumulation, Micromoles Dulcitol/g of Tissue (aldose reductase; Experiment No. 2, 100 mg/kg PO daily for three days with galactose 1 g/kg daily, galactose controls 4.3) | Mean Polyol Accumulation, %± Control (aldose reductase; Experiment No. 2, 100 mg/kg PO daily for three days with galactose, rat lens, vs galactose controls)
4.10 | O=C1C(=O)N2CCCc3cccc1c32 [AHR-5191, 5,6-dihydro-4H-pyrrolo[3,2,1-ij]quinoline-1,2-dione] | 2.1 Micromoles Dulcitol/g of Tissu | -43.2 | -37.0 |  |  |  | 
4.05 | O=C(O)CN1C(=O)c2cccc3cccc(c23)C1=O [Ay-22,284, 1,3-dioxo-1H-benz[de]isoquinoline-2(3H) acetic acid] |  |  |  | 2.7 Micromoles Dulcitol/g of Tissu | -27 | 5.9 Micromoles Dulcitol/g of Tissu | +37.2%
